In article PMC5762315, “Inhibition of polo-like kinase 4 (PLK4): a new therapeutic option for rhabdoid tumors and pediatric medulloblastoma” (Oncotarget, 2017):
“And” between values parts separate entries of the source, which are not always exact repeats. Identical values can stand only once.

How the values were obtained:
Test in all cases: LanthaScreen Eu Kinase Binding Assay, panel of 486 biochemical kinase assays
various kinases [1] = target: various kinases (Homo sapiens, UniProt Q9H4A3); conditions: kinase WNK1; LanthaScreen Binding
various kinases [2] = target: various kinases (Homo sapiens, UniProt P07949, G691S); conditions: kinase RET G691S; LanthaScreen Binding
Sequence of various kinases (Homo sapiens, UniProt P07949, G691S) (P07949 29-1114 G691S): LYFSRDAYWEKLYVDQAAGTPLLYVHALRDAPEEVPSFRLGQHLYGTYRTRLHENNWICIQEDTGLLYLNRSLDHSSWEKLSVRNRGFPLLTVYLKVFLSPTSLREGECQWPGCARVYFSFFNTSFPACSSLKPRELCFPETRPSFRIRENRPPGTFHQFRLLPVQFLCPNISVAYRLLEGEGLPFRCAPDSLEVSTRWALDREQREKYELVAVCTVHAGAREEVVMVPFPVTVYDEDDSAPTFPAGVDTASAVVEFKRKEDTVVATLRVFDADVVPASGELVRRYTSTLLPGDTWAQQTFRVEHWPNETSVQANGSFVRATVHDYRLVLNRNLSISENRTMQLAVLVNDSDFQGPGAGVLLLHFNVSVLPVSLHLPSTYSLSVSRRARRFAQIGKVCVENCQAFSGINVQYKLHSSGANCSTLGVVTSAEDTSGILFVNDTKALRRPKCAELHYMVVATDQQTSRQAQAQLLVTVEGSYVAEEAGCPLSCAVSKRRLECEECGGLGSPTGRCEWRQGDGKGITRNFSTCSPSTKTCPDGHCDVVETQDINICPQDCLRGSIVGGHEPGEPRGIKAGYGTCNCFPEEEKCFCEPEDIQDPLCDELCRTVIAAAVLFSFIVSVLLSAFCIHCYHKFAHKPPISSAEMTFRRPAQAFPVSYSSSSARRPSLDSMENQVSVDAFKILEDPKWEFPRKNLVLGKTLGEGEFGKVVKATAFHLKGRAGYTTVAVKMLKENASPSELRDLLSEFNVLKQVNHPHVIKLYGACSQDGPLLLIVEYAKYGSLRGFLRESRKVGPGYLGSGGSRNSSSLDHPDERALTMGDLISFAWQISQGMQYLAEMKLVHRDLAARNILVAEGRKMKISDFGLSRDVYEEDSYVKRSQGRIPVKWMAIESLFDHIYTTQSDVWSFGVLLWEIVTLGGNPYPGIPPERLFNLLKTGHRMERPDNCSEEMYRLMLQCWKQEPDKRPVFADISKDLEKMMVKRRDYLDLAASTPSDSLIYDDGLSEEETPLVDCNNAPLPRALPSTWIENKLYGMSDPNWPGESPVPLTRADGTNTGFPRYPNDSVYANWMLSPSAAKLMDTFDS

various kinases [3] = target: various kinases (Homo sapiens, UniProt P57059); conditions: kinase SIK1; LanthaScreen Binding
Sequence of various kinases (Homo sapiens, UniProt P57059) (P57059 whole entry): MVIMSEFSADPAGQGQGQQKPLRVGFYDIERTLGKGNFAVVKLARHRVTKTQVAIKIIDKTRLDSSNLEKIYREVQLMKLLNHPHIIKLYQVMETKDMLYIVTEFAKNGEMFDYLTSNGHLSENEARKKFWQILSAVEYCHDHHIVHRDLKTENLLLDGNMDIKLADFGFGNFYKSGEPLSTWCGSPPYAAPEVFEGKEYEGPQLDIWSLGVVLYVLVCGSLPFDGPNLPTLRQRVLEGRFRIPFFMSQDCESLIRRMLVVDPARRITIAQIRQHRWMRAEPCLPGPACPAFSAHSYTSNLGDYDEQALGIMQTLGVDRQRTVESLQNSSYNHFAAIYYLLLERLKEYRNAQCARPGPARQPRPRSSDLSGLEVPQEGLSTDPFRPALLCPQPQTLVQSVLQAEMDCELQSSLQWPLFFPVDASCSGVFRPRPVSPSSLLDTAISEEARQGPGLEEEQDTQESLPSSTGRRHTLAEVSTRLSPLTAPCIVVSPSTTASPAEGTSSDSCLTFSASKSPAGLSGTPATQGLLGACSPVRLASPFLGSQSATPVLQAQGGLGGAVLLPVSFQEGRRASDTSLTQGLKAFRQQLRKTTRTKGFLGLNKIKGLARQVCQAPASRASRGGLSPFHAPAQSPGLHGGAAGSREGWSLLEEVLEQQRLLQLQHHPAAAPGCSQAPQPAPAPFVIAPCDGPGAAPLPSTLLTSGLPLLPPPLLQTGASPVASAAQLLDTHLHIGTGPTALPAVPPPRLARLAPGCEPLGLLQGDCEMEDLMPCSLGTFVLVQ

various kinases [4] = target: various kinases (Homo sapiens, UniProt P07949, M918T); conditions: kinase RET M918T; LanthaScreen Binding
Sequence of various kinases (Homo sapiens, UniProt P07949, M918T) (P07949 29-1114 M918T): as the sequence (P07949 29-1114 G691S) above, with S663G, M890T counted along it

various kinases [5] = target: various kinases (Homo sapiens, UniProt P06241); conditions: FYN A
various kinases [6] = target: various kinases (Homo sapiens, UniProt P45983); conditions: MAPK8 (JNK1)
various kinases [7] = target: various kinases (Homo sapiens, UniProt Q07912); conditions: kinase TNK2 (ACK); LanthaScreen Binding
Sequence of various kinases (Homo sapiens, UniProt Q07912) (Q07912 whole entry): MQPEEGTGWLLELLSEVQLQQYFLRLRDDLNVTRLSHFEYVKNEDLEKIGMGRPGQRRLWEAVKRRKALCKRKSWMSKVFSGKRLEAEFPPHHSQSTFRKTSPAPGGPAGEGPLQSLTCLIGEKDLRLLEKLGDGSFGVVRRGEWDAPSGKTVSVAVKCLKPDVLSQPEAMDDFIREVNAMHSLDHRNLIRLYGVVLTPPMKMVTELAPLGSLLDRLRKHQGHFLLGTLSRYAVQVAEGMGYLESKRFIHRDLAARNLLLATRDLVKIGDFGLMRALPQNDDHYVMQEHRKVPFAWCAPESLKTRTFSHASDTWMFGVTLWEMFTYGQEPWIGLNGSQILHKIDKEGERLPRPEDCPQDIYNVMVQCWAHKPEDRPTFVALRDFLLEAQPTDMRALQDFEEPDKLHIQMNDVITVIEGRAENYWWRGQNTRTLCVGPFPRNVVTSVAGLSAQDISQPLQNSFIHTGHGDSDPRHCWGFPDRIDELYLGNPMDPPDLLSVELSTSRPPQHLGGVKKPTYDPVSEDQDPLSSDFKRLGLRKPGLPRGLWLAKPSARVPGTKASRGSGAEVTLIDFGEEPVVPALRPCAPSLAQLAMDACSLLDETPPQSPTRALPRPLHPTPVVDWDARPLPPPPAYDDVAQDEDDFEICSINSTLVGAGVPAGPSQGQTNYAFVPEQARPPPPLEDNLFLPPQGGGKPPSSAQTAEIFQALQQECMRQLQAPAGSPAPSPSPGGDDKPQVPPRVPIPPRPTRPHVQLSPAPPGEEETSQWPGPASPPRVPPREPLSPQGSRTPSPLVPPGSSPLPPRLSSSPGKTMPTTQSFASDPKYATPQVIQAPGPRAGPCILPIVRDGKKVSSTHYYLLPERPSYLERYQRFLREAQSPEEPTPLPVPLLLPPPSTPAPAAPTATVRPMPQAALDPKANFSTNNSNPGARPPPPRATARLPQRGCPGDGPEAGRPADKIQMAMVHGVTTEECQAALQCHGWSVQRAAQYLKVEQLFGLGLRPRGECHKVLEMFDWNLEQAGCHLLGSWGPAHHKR

various kinases [8] = target: various kinases (Homo sapiens, UniProt P45985); conditions: MAP2K4 (MEK4)
Sequence of various kinases (Homo sapiens, UniProt P45985) (P45985 whole entry): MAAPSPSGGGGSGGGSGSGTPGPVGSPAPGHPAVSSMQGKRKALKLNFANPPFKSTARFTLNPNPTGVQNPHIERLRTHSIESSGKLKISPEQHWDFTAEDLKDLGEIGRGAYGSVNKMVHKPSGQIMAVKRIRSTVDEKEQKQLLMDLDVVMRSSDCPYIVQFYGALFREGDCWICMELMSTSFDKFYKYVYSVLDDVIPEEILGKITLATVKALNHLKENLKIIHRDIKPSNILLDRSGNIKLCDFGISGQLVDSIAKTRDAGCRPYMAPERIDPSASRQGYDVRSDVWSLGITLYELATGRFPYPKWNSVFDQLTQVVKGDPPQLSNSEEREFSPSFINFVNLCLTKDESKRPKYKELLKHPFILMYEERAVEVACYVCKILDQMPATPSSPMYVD

various kinases [9] = target: T1, various kinases (Homo sapiens, UniProt Q9UEE5); conditions: kinase STK17A (DRAK1); LanthaScreen Binding
T1 sequence (Q9UEE5 1-414): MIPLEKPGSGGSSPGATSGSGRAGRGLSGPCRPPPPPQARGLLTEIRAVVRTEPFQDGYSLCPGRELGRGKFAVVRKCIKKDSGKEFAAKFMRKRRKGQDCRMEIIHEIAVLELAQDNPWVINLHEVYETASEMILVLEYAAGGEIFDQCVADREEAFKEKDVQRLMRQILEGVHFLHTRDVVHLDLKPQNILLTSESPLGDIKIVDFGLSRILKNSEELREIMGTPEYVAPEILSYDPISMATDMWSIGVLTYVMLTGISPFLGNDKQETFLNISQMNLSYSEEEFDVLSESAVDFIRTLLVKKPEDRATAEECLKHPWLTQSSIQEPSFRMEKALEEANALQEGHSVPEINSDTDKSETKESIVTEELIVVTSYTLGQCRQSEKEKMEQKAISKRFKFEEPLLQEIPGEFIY

various kinases [10] = target: T2, various kinases (Homo sapiens, UniProt Q9UKI8); conditions: kinase TLK1; LanthaScreen Binding
T2 sequence (Q9UKI8 1-766): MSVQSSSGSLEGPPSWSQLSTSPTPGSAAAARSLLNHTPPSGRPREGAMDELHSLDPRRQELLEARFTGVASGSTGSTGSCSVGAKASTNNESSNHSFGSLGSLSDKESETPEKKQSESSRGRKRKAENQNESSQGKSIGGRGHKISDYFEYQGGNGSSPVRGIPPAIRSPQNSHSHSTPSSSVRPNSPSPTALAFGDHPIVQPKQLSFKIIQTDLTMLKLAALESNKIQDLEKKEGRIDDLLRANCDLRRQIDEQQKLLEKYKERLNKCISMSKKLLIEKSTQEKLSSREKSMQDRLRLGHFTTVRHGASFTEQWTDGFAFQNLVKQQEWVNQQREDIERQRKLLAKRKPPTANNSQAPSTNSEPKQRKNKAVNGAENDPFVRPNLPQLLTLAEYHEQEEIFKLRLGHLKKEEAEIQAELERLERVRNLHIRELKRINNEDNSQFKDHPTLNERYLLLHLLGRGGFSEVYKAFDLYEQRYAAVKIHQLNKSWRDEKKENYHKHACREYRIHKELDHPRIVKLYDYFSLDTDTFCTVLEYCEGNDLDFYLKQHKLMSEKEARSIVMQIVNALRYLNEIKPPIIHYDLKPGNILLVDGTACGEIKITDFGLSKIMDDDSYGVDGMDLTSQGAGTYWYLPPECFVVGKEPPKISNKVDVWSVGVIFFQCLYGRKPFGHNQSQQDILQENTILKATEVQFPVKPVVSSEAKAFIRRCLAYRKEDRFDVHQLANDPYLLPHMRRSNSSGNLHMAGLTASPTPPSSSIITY

various kinases [11] = target: various kinases (Homo sapiens, UniProt Q15835); conditions: GRK1
Sequence of various kinases (Homo sapiens, UniProt Q15835) (Q15835 whole entry): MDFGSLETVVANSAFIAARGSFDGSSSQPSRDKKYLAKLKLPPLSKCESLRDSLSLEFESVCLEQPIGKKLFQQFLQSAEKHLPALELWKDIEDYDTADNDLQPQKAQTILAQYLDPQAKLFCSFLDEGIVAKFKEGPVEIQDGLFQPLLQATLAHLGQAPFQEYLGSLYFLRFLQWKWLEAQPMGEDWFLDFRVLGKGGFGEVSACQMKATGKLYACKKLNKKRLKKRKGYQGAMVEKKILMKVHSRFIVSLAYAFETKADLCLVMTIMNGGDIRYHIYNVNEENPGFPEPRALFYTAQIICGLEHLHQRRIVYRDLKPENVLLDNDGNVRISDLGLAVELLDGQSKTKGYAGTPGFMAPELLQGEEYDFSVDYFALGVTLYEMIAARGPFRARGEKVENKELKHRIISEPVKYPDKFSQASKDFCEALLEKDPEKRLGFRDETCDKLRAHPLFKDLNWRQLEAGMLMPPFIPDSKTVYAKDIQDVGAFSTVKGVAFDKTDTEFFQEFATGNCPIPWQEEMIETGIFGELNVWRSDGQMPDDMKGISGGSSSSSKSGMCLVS

various kinases [12] = target: T3, various kinases (Homo sapiens, UniProt P42680); conditions: kinase TEC; LanthaScreen Binding
T3 sequence (P42680 1-631): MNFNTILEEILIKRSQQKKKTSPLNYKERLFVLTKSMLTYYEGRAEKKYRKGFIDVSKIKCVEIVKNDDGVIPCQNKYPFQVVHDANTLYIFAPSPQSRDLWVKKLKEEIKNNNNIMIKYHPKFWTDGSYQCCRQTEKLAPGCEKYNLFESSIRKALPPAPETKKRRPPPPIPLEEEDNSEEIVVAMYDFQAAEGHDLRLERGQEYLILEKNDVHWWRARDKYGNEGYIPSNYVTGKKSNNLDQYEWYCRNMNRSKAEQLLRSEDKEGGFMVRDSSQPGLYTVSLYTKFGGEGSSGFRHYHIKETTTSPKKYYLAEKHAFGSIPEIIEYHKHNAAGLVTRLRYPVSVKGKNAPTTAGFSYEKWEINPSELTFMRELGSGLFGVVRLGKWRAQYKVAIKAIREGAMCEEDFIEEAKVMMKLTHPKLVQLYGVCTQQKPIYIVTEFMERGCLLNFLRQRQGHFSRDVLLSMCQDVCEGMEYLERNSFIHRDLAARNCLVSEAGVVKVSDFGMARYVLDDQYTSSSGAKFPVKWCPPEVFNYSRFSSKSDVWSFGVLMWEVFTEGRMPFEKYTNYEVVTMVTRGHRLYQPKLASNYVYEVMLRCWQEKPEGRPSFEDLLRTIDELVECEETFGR

various kinases [13] = target: various kinases (Homo sapiens, UniProt P10721, T670E); conditions: KIT T670E
various kinases [14] = target: various kinases (Homo sapiens, UniProt Q15375); conditions: EPHA7
Sequence of various kinases (Homo sapiens, UniProt Q15375) (Q15375 28-998): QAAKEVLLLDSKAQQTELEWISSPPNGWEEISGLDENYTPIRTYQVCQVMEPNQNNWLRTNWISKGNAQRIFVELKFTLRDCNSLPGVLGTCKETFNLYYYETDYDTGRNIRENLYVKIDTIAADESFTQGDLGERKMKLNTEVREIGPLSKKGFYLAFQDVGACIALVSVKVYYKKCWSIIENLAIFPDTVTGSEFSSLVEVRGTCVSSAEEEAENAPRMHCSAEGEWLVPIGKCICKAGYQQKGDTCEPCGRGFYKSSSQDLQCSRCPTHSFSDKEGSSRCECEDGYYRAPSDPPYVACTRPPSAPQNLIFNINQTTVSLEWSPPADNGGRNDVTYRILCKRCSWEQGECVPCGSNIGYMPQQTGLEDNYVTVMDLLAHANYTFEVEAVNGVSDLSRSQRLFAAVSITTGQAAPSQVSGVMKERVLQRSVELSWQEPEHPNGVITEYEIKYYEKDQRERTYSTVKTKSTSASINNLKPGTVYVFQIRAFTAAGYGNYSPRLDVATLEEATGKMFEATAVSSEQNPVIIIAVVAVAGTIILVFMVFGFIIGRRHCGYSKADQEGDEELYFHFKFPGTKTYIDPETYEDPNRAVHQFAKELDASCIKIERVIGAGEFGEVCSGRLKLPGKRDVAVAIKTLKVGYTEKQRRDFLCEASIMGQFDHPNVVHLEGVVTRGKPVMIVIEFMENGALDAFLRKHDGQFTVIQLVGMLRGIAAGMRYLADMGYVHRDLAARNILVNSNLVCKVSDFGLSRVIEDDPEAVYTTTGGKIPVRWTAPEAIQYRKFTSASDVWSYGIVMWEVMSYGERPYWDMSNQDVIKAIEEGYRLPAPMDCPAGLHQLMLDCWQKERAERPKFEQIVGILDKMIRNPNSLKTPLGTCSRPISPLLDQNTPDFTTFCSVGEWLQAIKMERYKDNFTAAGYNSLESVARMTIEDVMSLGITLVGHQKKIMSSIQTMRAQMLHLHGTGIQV

various kinases [15] = target: various kinases (Homo sapiens, UniProt P49336); conditions: CDK8/cyclin C

COc1ccc2c(c1)[C@]1(C[C@H]1c1ccc3c(/C=C/c4ccc(CN5C[C@@H](C)O[C@@H](C)C5)cc4)n[nH]c3c1)C(=O)N2 [CFI-400945]
% Inhibition Average (various kinases [1]): 11% | % Inhibition Duplicate #1 (various kinases [1]): 14% | % Inhibition Duplicate #2 (various kinases [1]): 8% | % Inhibition Average (various kinases [2]): -1% | % Inhibition Duplicate #1 (various kinases [2]): -11% | % Inhibition Duplicate #2 (various kinases [2]): 9% | % Inhibition Average (various kinases [3]): 6% | % Inhibition Duplicate #1 (various kinases [3]): 5% | % Inhibition Duplicate #2 (various kinases [3]): 6% | % Inhibition Average (various kinases [4]): 27% | % Inhibition Duplicate #1 (various kinases [4]): 26% | % Inhibition Duplicate #2 (various kinases [4]): 28% | % Inhibition (various kinases [5]): 8% | % Inhibition (various kinases [6]): 0% and -1% | % Inhibition Average (various kinases [7]): 9% | % Inhibition Duplicate #1 (various kinases [7]): 11% | % Inhibition Duplicate #2 (various kinases [7]): 8% | % Inhibition (various kinases [8]): 7% and 3% | % Inhibition Average (various kinases [9]): 19% | % Inhibition Duplicate #1 (various kinases [9]): 24% | % Inhibition Duplicate #2 (various kinases [9]): 13% | % Inhibition Average (various kinases [10]): 0% | % Inhibition Duplicate #1 (various kinases [10]): -1% | % Inhibition Duplicate #2 (various kinases [10]): 0% | % Inhibition (various kinases [11]): 22% and 13% | % Inhibition Average (various kinases [12]): -1% | % Inhibition Duplicate #1 (various kinases [12]): 1% | % Inhibition Duplicate #2 (various kinases [12]): -3% | % Inhibition (various kinases [13]): 9% and 6% | % Inhibition (various kinases [14]): -4% and 5% | % Inhibition (various kinases [15]): 17% and 9%
